Source: patent US4980163A, “Novel bacteriocin compositions for use as enhanced broad range bactericides and methods of preventing and treating microbial infection” (Public Health Research Institute of the City of New York, priority 1989, dated 1990)
“And” between values parts separate entries of the source, which are not always exact repeats. Identical values can stand only once. Where no end group is shown, it is not given here.

Tested on: Staphylococcus aureus
Test: Bactericidal activity in milk, percent bacterial survival (Example 1, Table 1)
Format: cell-based
Conditions: for % survival 2 hr: initial viable counts 5 × 10^7 cfu/ml
Procedure: All tests in the following examples were performed at 37° C. The efficacy of the enhanced broad range bactericides was determined by assaying bactericidal activity as measured by the percent bacterial survival after treatment with the bactericide. Generally, after incubation of a 10^7 cell per ml suspension of target species with the novel bactericide for specified lengths of time, bacteria were collected by centrifugation for 2 minutes. The bacterial pellet was washed free of the bactericide with a rescue buffer, termed herein Phage buffer (50 mM Tris-HCl buffer pH 7.8, 1 mM MgSO4, 4 mM CaCl2, 0.1M NaCl, and 0.1% gelatin), resuspended and serially diluted into Phage buffer, and 100 μl of the suspended bacteria were spread on nutrient agar plates. Surviving bacteria were determined by scoring colony forming units (CFU) after incubation for 24-48 hours at 37° C. An effective bactericide according to this invention is one which allows less than 0.1% of the initial viable count of the bacteria to survive.
Staphylococcus aureus cells were suspended and incubated in milk at 37° C. for 2 hours with various concentrations of lysostaphin, nisin, or a combination of lysostaphin and nisin in the milk. The bactericidal efficacy of the bactericides was estimated by determining the percent survival of bacteria as described above.

Substance	% survival 2 hr (Lysostaphin 1.0 μg/ml, Nisin 0, milk, 37° C.)	log reduction in viable cells (Lysostaphin alone 1.0 μg/ml in milk)	% survival 2 hr (Nisin 0.2 μg/ml, Lysostaphin 0, milk, 37° C.) [%]	% survival 2 hr (Nisin 0.5 μg/ml, Lysostaphin 0, milk, 37° C.) [%]	% survival 2 hr (Nisin 1.0 μg/ml, Lysostaphin 0, milk, 37° C.) [%]	% survival 2 hr (Nisin 2.0 μg/ml, Lysostaphin 0, milk, 37° C.)	% survival 2 hr (Nisin 4.0 μg/ml, Lysostaphin 0, milk, 37° C.) [%]	bactericidal activity in milk (in words) (milk, 37° C.)
Lysostaphin	< 10^-3%	more than a five log reduction						
Nisin (ITSISLCTPGCKTGALMGCNMKTATCHCSIHVSK; also: lantibiotic nisin-A: lanthionine rings and dehydrated residues, places not given here; UniProt P13068 24-57, looked up) [lanthionine containing peptide bacteriocin produced by Streptococcus lactis]			45	33	9	2.5% and 0.5%	0.5	little practical bactericidal activity
